# From PMC10306110 (Cell, 2023)
# Experiments:
# [1] = system: learned helpless C57BL/6J mice; experiment: Open field motor activity; type: in vivo, mouse; settings: day 12; 2 or 5 mg/kg ‘8090, 5 mg/kg ‘8219; 40 mg/kg Ibo, 10 mg/kg Flx
# [2] = system: learned helpless C57BL/6J mice; experiment: Elevated zero maze; type: in vivo, mouse; settings: for locomotion in the zero maze versus vehicle: 5 mg/kg ‘8090, 40 mg/kg Ibo
# [3] = system: wild-type (WT) and VMAT2 heterozygous (HET) mice; experiment: Tail suspension in VMAT2 mice; type: in vivo, mouse; settings: for anti-depressant-like effects 24 h post-injection: VMAT2 HET, 2 mg/kg ‘8090, 0.5 mg/kg ‘8219, 20 mg/kg Flx, 30 mg/kg Ibo; for immobility times: acute (30 min), 20 mg/kg Flx versus vehicle, 30 mg/kg Ibo versus 1 mg/kg ‘8090 and 0.5 mg/kg ‘8219
# [4] = system: learned helpless C57BL/6J mice; experiment: Learned helplessness: shock escape; type: in vivo, mouse; settings: for shock-escape performance: 40 mg/kg Ibo, 10 mg/kg Flx
# [5] = system: learned helpless C57BL/6J mice; experiment: Elevated 8-arm radial maze; type: in vivo, mouse
# [6] = system: learned helpless C57BL/6J mice; experiment: Learned helplessness: sucrose preference; type: in vivo, mouse; settings: for overall sucrose preference at testing: 40 mg/kg Ibo
# [7] = system: learned helpless C57BL/6J mice; experiment: Learned helplessness: tail suspension; type: in vivo, mouse; settings: for immobility upon treatment-withdrawal / anti-depressant-like activities in tail suspension: 40 mg/kg Ibo; for immobility upon treatment-withdrawal: 10 mg/kg Flx; for anti-depressant-like activities in tail suspension: 10 mg/kg Flx daily
# [8] = system: learned helpless C57BL/6J mice; experiment: Sensitivity to foot-shock; type: in vivo, mouse; settings: days 13 and 22
# SERT-S277C = SERT-S277C (Rattus norvegicus, UniProt P31652, C109A/C15A/C21A/C357I/C622A/S277C); experiment: Cys277 accessibility; type: biochemical
# SERT-Y107C [9] = target: T1, SERT-Y107C (Rattus norvegicus, UniProt P31652, C109A/Y107C); settings: cited from earlier work
# morphine-treated mice = experiment: Naloxone-precipitated opioid withdrawal assay; type: in vivo, mouse; settings: 10 mg/kg i.p.
# C56BL/6J mice = experiment: Elevated plus-maze assay; type: in vivo, mouse; settings: ‘8219 and ‘8090 10 mg/kg/day for 10 days; paroxetine 10 mg/kg single
# rSERT = rSERT (Rattus norvegicus, UniProt P31652); experiment: [3H]5-HT transport into RBL cells or SERT-transfected HeLa cells; type: cell-based
# hSERT = hSERT (Homo sapiens, UniProt P31645); type: cell-based
# Chain of hSERT (P31645 whole entry): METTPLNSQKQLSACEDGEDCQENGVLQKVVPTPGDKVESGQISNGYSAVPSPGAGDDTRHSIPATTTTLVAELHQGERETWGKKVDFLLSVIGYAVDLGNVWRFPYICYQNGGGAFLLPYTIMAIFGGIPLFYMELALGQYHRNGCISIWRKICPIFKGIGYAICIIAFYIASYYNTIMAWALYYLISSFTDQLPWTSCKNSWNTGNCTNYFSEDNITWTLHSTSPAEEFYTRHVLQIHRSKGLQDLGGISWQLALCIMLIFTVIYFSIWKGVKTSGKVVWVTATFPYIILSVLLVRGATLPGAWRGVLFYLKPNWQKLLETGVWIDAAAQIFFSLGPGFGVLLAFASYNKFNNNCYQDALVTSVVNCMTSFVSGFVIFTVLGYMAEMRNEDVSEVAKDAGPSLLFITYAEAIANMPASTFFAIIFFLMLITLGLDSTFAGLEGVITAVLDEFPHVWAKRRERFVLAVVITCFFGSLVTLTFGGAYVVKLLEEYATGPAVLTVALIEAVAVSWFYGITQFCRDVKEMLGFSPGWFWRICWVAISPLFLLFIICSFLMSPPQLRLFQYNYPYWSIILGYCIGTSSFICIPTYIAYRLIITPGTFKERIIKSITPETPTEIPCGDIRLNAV
# [10] = Pharmacokinetics, brain exposure after i.p. dosing; type: in vivo; settings: 10 mg/Kg intraperitoneal (i.p.), mouse
# SERT-Y107C [11] = target: T1, SERT-Y107C; experiment: Cys107 accessibility; type: cell-based; settings: saturating concentration (10x KD)
# human NET = human NET (Homo sapiens, UniProt P23975); experiment: Neurotransmitter transporter uptake assay, NET; settings: read-out: Ki against NET; cell-based functional assay
# Chain of human NET (P23975 whole entry): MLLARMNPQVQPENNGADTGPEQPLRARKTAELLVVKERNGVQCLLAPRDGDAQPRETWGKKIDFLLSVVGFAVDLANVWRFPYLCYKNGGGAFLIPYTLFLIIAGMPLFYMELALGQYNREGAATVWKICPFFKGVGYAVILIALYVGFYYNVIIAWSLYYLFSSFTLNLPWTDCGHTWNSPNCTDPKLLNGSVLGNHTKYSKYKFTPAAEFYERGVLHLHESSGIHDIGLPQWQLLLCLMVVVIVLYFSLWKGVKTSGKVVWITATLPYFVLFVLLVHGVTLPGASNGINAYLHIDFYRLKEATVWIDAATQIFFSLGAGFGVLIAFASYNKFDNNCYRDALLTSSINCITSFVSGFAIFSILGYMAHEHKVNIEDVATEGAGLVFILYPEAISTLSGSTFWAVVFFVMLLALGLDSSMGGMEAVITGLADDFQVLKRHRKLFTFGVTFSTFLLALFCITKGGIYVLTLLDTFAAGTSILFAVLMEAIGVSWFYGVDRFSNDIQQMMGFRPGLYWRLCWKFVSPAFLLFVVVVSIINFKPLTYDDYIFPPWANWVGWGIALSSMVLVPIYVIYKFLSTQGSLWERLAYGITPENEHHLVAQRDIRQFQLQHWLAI
# human DAT = human DAT (Homo sapiens, UniProt Q01959); experiment: Neurotransmitter transporter uptake assay, DAT; settings: read-out: Ki against DAT; cell-based functional assay
# Chain of human DAT (Q01959 whole entry): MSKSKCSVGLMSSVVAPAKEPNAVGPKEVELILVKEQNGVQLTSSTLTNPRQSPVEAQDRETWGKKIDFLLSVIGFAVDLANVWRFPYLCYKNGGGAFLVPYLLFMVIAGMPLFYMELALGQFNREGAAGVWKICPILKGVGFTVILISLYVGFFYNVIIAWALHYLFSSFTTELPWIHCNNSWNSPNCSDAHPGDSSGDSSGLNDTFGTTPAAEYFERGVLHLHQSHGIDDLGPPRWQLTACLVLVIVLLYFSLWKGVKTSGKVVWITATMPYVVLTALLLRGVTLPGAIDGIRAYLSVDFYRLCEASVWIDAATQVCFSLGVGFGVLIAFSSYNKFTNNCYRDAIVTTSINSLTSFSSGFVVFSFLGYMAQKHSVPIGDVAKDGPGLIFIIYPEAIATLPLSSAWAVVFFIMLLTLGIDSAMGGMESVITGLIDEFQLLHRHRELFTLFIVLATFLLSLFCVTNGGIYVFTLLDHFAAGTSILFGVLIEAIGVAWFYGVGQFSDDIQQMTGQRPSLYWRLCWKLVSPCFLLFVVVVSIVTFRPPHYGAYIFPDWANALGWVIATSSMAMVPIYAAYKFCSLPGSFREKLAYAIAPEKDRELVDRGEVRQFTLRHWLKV
# 5-HT1A receptor = target: T2, 5-HT1A receptor (Homo sapiens, UniProt P08908); experiment: GloSensor cAMP Gi agonist activity assay; type: cell-based; settings: concentration-response
# T2 sequence (P08908 1-422): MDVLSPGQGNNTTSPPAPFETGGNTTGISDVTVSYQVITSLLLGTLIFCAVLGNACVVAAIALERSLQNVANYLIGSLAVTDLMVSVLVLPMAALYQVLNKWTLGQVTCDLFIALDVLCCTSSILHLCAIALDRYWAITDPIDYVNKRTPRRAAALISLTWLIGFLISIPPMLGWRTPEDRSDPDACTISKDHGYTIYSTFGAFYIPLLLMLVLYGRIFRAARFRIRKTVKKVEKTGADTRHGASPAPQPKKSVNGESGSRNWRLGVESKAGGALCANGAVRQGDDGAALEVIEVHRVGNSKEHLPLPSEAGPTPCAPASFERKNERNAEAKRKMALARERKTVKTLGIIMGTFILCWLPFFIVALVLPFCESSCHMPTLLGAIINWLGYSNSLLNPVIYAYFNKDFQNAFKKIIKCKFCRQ
# SERT [12] = target: T3, SERT (Rattus norvegicus, UniProt P31652); experiment: Efflux of accumulated [3H]5-HT induced by extracellular compounds; type: cell-based; settings: saturating concentrations
# SERT [13] = target: T3, SERT; experiment: [125I]β-CIT displacement binding in membranes from SERT-transfected HeLa cells
# SERT [14] = target: T3, SERT; settings: cited from earlier work
# [15] = presence of Na+, cocaine 10 µM, ibogaine 10 µM, ‘8219 0.05 µM, ‘8090 0.15 µM
compound,measurement,setting,value
"CNCCC(Oc1ccc(C(F)(F)F)cc1)c1ccccc1 (stereo not shown) [Flx, fluoxetine]",locomotion in the open field,[1],No locomotor differences were found
same,open area time compared to Ibo and vehicle controls,[2]; 10 mg/kg Flx,increased open area time
same,anti-depressant-like effects 24 h post-injection,[3],maintained
same,immobility times,[3]; WT,increased
same,shock-escape performance,[4],improve shock-escape performance
same,arm entries before repeating a first entry compared to Ibo and vehicle mice,"[5]; 10 mg/kg Flx, ANCOVA",entered more arms before repeating a first entry
same,sucrose preference over vehicle controls on day −2,[6]; 10 mg/kg Flx daily,enhanced preference for sucrose
same,overall sucrose preference at testing,[6]; 10 mg/kg Flx daily,increased overall sucrose preference
same,immobility upon treatment-withdrawal,[7],immobility was enhanced
same,anti-depressant-like activities in tail suspension,[7],transient
same,reactivity to foot-shock,[8],do not affect reactivity to foot-shock
"COC(=O)[C@H]1[C@@H](OC(=O)c2ccccc2)C[C@@H]2CC[C@H]1N2C [cocaine, reference compound]",Cys277 reactivity (cytoplasmic pathway) versus control,SERT-S277C; [15],decreased Cys277 reactivity
same,Cys107 accessibility (extracellular pathway),SERT-Y107C [9],renders it more accessible
"Fc1ccc([C@@H]2CCNC[C@H]2COc2ccc3c(c2)OCO3)cc1 [paroxetine, reference compound]",naloxone-precipitated morphine withdrawal symptoms,morphine-treated mice,significantly reduced naloxone-precipitated jumps and rearings
same,open arm entries and time compared to vehicle,C56BL/6J mice,spent more time exploring the open arms
Fc1ccc(-c2csc(N3CCNCC3)n2)cc1 [‘8090],Vmax for 5-HT transport in presence of inhibitor,"rSERT; 0.15 μM ‘8219, 0.7 μM ‘8090, HeLa cells transfected with rSERT, control 1.7 ± 0.25",0.69 ± 0.1 pmol/m/well
same,type of inhibition of 5-HT influx,rSERT; decreased Vmax with minimal effect on KM,non-competitive inhibition
same,locomotion in the open field,[1],no effects were observed
same,Cys277 reactivity (cytoplasmic pathway) versus control,"SERT-S277C; absence of Na+ (replaced by NMDG), 2 µM",had no influence on the pathway
same,Cys277 reactivity (cytoplasmic pathway) versus control,SERT-S277C; [15],decreased reactivity slightly
same,locomotion in the zero maze versus vehicle,[2],increased
same,time in and entry into the open areas versus vehicle,"[2]; 2 or 5 mg/kg ‘8090, 5 mg/kg ‘8219, day 6",spent more time and entered the open areas more readily than vehicle-treated mice
same,anti-depressant-like effects 24 h post-injection,[3],maintained
same,immobility 24 h post-injection,"[3]; WT, 1 mg/kg compared to 0.5 mg/kg",significantly decreased immobility
same,shock-escape performance on day 23 versus controls,[4]; 1 mg/kg ‘8090 group,higher
same,shock-escape performance (numbers of escapes) on days 10 and 23,[4]; 5 mg/kg,increased over vehicle
same,open arm entries and time compared to vehicle,C56BL/6J mice,increased the percentage of entries into and the time spent exploring the open arms
same,dissociation rate,"hSERT; HEK-293 cells expressing hSERT pre-incubated with 50 nM ‘8219 or 75 nM ‘8090, washout",1.82 ± 0.09 × 10^−3 s^−1
same,half time for equilibration of binding,"hSERT; at concentrations giving half-maximal inhibition, calculated",less than 7 minutes
same,brain Cmax,[10],12000 ng/g
same,half-life,[10]; brain,44.3 min
same,arm entries before a second repeated entry versus vehicle,"[5]; 2 mg/kg ‘8090 or 5 mg/kg ‘8219, day 9",entered more arms before making a second repeated entry
same,Cys107 reactivity (extracellular pathway),SERT-Y107C [11],decreased Cys107 reactivity
same,Ki,human NET,10 µM
same,Ki,human DAT,6.6 µM
same,Gi agonist activity at 5-HT1A relative to reference agonist 5-HT,5-HT1A receptor,about 6%
same,sucrose preference compared to vehicle,"[6]; daily i.p. dosing, 2 or 5 mg/kg ‘8090, 5 mg/kg ‘8219",significant preference for sucrose compared to vehicle
same,"immobility times on days 0, 1, and 3","[7]; 2 or 5 mg/kg ‘8090, 5 mg/kg ‘8219 daily",reduced
same,SERT substrate activity (stimulation of [3H]5-HT efflux),SERT [12],not SERT substrates
same,Ki,SERT [13]; displacement of [125I]β-CIT,0.014 µM
same,increase of inhibitory potency (binding) by Na+,SERT [13]; displacement of [125I]β-CIT,15 fold
same,Kd,SERT [13]; read-out: KD values used for kon calculation,0.015 µM
same,reactivity to foot-shock,[8],do not affect reactivity to foot-shock
ibogaine,Cys277 reactivity (cytoplasmic pathway) versus control,SERT-S277C; [15],dramatically increased Cys277 reactivity
same,effect of Cl− on binding to SERT,SERT [14],independent of Cl^−
same,effect of Na+ on binding to SERT,SERT [14],inhibited by Na^+
same,locomotion in the zero maze versus vehicle,[2],decreased
same,anti-depressant-like effects 24 h post-injection,[3],effects were lost
same,immobility times,[3]; WT,increased
same,shock-escape performance,[4],improve shock-escape performance
same,locomotion in the radial maze,[5]; 40 mg/kg Ibo,suppressed locomotion
same,Cys107 accessibility (extracellular pathway),SERT-Y107C [9],decreases its accessibility
same,overall sucrose preference at testing,[6]; 10 mg/kg Flx daily,increased overall sucrose preference
same,immobility upon treatment-withdrawal,[7],immobility was enhanced
same,anti-depressant-like activities in tail suspension,[7],transient
